Measurements as given in US7153993B2, “Process for making polymorphic form A of 4-[6-acetyl-3-[3-(4-acetyl-3-hydroxy-2-propylphenylthio)propoxy]-2-propylphenoxy]butyric acid” (Medicinova, Inc., priority 2003, dated 2006).
≈ marks a conversion by molar mass, not a printed value.

What was measured:
[1] = Oral activity for treatment of asthma and allergic diseases; format: in vivo
[2] = Solubility of crystalline polymorphs in ether; format: physicochemical
Description: After re-crystallization with individual solvents, compound (1) was subjected to powder X-ray diffractometry, thermal analysis and determination of solubility in ether; thus an exploratory evaluation of the crystalline polymorphism was made.

[3] = Solubility of compound (1) in ethanol/water (2:1); format: physicochemical; conditions: stirred one hour
Procedure: Samples of compound (1) (5 g) were suspended in ethanol/water (2:1, 100 mL) and stirred for one hour at temperatures of 22° C., 30° C., and 40° C., respectively. The suspensions were filtered and the solids dried in a vacuum oven at room temperature overnight to give the insoluble material. The solubilities were calculated by subtractive means based on recovered material.

CCCc1c(SCCCOc2ccc(C(C)=O)c(OCCCC(=O)O)c2CCC)ccc(C(C)=O)c1O [Compound (1), 4-[6-acetyl-3-[3-(4-acetyl-3-hydroxy-2-propylphenylthio)propoxy]-2-propylphenoxy]butyric acid]
oral activity for treatment of asthma and allergic diseases [1]: orally active

CCCc1c(SCCCOc2ccc(C(C)=O)c(OCCCC(=O)O)c2CCC)ccc(C(C)=O)c1O [Form I, 4-[6-acetyl-3-[3-(4-acetyl-3-hydroxy-2-propylphenylthio)propoxy]-2-propylphenoxy]butyric acid]
Solubility in ether ([2]; ether, listed as I): 36.7 mg/mL (≈ 69.2 mM)

CCCc1c(SCCCOc2ccc(C(C)=O)c(OCCCC(=O)O)c2CCC)ccc(C(C)=O)c1O [Form II, 4-[6-acetyl-3-[3-(4-acetyl-3-hydroxy-2-propylphenylthio)propoxy]-2-propylphenoxy]butyric acid]
solubility ([2]; ether, organic solvent or mixture): 40.5 mg/mL (≈ 76.3 mM)

CCCc1c(SCCCOc2ccc(C(C)=O)c(OCCCC(=O)O)c2CCC)ccc(C(C)=O)c1O [Form III, 4-[6-acetyl-3-[3-(4-acetyl-3-hydroxy-2-propylphenylthio)propoxy]-2-propylphenoxy]butyric acid]
Solubility in ether ([2]; ether, listed as III): 35.3 mg/mL (≈ 66.5 mM)

CCCc1c(SCCCOc2ccc(C(C)=O)c(OCCCC(=O)O)c2CCC)ccc(C(C)=O)c1O [Form IV, 4-[6-acetyl-3-[3-(4-acetyl-3-hydroxy-2-propylphenylthio)propoxy]-2-propylphenoxy]butyric acid]
Solubility in ether ([2]; ether, listed as IV): 45.8 mg/mL (≈ 86.3 mM)

CCCc1c(SCCCOc2ccc(C(C)=O)c(OCCCC(=O)O)c2CCC)ccc(C(C)=O)c1O [Form V, 4-[6-acetyl-3-[3-(4-acetyl-3-hydroxy-2-propylphenylthio)propoxy]-2-propylphenoxy]butyric acid]
Solubility in ether ([2]; ether, listed as V): 47.6 mg/mL (≈ 89.7 mM) | solubility compared to the other polymorphs ([2]; qualitative statement, solvent not stated): superior to the other polymorphs | Solubility in ethanol/water (2:1) ([3]; 30° C., listed as V (form A)): 15.7 mg/mL (≈ 29.6 mM) | Solubility in ethanol/water (2:1) ([3]; 40° C., listed as V (form A)): 46 mg/mL (≈ 86.7 mM) | solubility at 1 h ([3]; ethanol/water (2:1), 22 °C, organic solvent or mixture, thermodynamic from solid, 22° C.): 6.7 mg/mL (≈ 12.6 mM)

CCCc1c(SCCCOc2ccc(C(C)=O)c(OCCCC(=O)O)c2CCC)ccc(C(C)=O)c1O [undesired monoclinic polymorph, 4-[6-acetyl-3-[3-(4-acetyl-3-hydroxy-2-propylphenylthio)propoxy]-2-propylphenoxy]butyric acid]
Solubility in ethanol/water (2:1) ([3]; 22° C.): 3.4 mg/mL (≈ 6.41 mM) | Solubility in ethanol/water (2:1) ([3]; 30° C.): 6.1 mg/mL (≈ 11.5 mM) | Solubility in ethanol/water (2:1) ([3]; 40° C.): 17.2 mg/mL (≈ 32.4 mM)
